Data on 11 compounds can be found in PubChem BioAssay AID248 (DTP/NCI, 2004).

For this assay, the system named is L1210 leukemia ip in BDF1 mice, survival T/C. Description: NCI In Vivo Anticancer Drug Screen. Data for tumor model L1210 Leukemia (intraperitoneal) in B6D2F1 (BDF1) mice. The following applies: endpoint: mean survival time, higher = longer survival. The procedure, abridged: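 Tumor cells were implanted, animals were treated, and survival was followed. The result divides the treated measurement by the vehicle-control measurement.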

Setting [1] is: dose: 25.0 mg/kg/injection, schedule: Q04DX002 (ip), vehicle: saline.
Setting [2] is: dose: 50.0 mg/kg/injection, schedule: Q04DX002 (ip), vehicle: saline.
[3] abbreviates: dose: 100.0 mg/kg/injection, schedule: Q01DX001 (ip), vehicle: saline with Tween-80.
The mark [4] stands for this setting: dose: 200.0 mg/kg/injection, schedule: Q01DX001 (ip), vehicle: saline with Tween-80.

Where “and” joins values, the source holds several entries; their conditions need not be identical. Identical values can stand only once. Toxic doses and inconclusive results are not listed.

As for `NC(CC(O)C(=O)O)C(=O)O` (stereo not given), the T/C runs as follows: (dose: 12.5 mg/kg/injection, schedule: Q04DX002 (ip), vehicle: saline) 95 % of control; under setting [1], 106 % of control and 96 % of control; under setting [2], 106 % of control and 96 % of control; under setting [3], 93 % of control; (dose: 100.0 mg/kg/injection, schedule: Q04DX002 (ip), vehicle: saline) 101 % of control; under setting [4], 97 % of control. Further, the T/C (dose: 400.0 mg/kg/injection, schedule: Q01DX001 (ip), vehicle: saline with Tween-80) is 87 % of control.

For `CC(C)CCCC(C)C1CCC2C3CCC45CC4C(=O)CCC5(C)C3CCC12C` (stereo not given), the T/C (dose: 100.0 mg/kg/injection, schedule: Q01DX009 (ip), vehicle: acetone) is 87 % of control and 96 % of control; the T/C (dose: 200.0 mg/kg/injection, schedule: Q01DX009 (ip), vehicle: acetone) was 103 % of control; the T/C (dose: 400.0 mg/kg/injection, schedule: Q01DX009 (ip), vehicle: acetone) is 89 % of control and 94 % of control.

Turning to `COc1ccc(C(=O)CCC(=O)O)cc1OC`, the T/C (dose: 50.0 mg/kg/injection, schedule: Q01DX001 (ip), vehicle: carboxymethylcellulose (CMC)) was 97 % of control; the T/C (dose: 100.0 mg/kg/injection, schedule: Q01DX001 (ip), vehicle: carboxymethylcellulose (CMC)) is 100 % of control; the T/C (dose: 200.0 mg/kg/injection, schedule: Q01DX001 (ip), vehicle: carboxymethylcellulose (CMC)) was 92 % of control; the T/C (dose: 400.0 mg/kg/injection, schedule: Q01DX001 (ip), vehicle: carboxymethylcellulose (CMC)) was 92 % of control.

For `O=C(CCCC(=O)N1CCOCC1)N1CCOCC1`, the T/C runs as follows: (dose: 100.0 mg/kg/injection, schedule: Q04DX003 (ip), vehicle: Klucel (hydroxypropylcellulose) (HPC)) 108 % of control; (dose: 200.0 mg/kg/injection, schedule: Q04DX003 (ip), vehicle: Klucel (hydroxypropylcellulose) (HPC)) 103 % of control; (dose: 400.0 mg/kg/injection, schedule: Q04DX003 (ip), vehicle: Klucel (hydroxypropylcellulose) (HPC)) 101 % of control.

On to `c1ccc(N2CCN(c3ccccc3)C2c2ccc3c(c2)CCC3)cc1`, for which the T/C was 92 % of control (dose: 100.0 mg/kg/injection, schedule: Q04DX003 (ip), vehicle: saline with Tween-80); 90 % of control (dose: 200.0 mg/kg/injection, schedule: Q04DX003 (ip), vehicle: saline with Tween-80); 104 % of control (dose: 400.0 mg/kg/injection, schedule: Q04DX003 (ip), vehicle: saline with Tween-80).

`CC(=O)OC(C)(C)/C=C/C(=O)[C@](C)(O)[C@H]1[C@H](O)C[C@@]2(C)[C@@H]3CC=C4[C@@H](C=C(O)C(=O)C4(C)C)[C@]3(C)C(=O)C[C@]12C`: the T/C reads like this: (dose: 0.4 mg/kg/injection, schedule: Q01DX Z (ip), vehicle: carboxymethylcellulose (CMC)) 94 % of control; (dose: 0.8 mg/kg/injection, schedule: Q01DX Z (ip), vehicle: carboxymethylcellulose (CMC)) 100 % of control; (dose: 1.6 mg/kg/injection, schedule: Q01DX Z (ip), vehicle: carboxymethylcellulose (CMC)) 105 % of control; (dose: 3.2 mg/kg/injection, schedule: Q01DX Z (ip), vehicle: carboxymethylcellulose (CMC)) 100 % of control.

As for `Clc1cc(Cl)c(C[N+]23CN4CN(CN(C4)C2)C3)cc1Cl`, the T/C by setting is: (dose: 12.5 mg/kg/injection, schedule: Q01DX009 (ip), vehicle: saline with Tween-80) 102 % of control; (dose: 25.0 mg/kg/injection, schedule: Q01DX009 (ip), vehicle: saline with Tween-80) 104 % of control; (dose: 50.0 mg/kg/injection, schedule: Q01DX009 (ip), vehicle: saline with Tween-80) 102 % of control; (dose: 100.0 mg/kg/injection, schedule: Q01DX009 (ip), vehicle: saline with Tween-80) 120 % of control; (dose: 200.0 mg/kg/injection, schedule: Q01DX009 (ip), vehicle: saline with Tween-80) 121 % of control.

Turning to `Nc1nc2ncc(CNc3cnc(C(=O)NC(CCC(=O)O)C(=O)O)nc3)nc2c(=O)[nH]1` (stereo not given), the T/C is 107 % of control (dose: 50.0 mg/kg/injection, schedule: Q01DX009 (ip), vehicle: alkali diluted with saline); 103 % of control under setting [3]; 112 % of control under setting [4].

Turning to `CC1(C)CC(=O)CC(C)(C)ON1`, the T/C is, setting by setting: (dose: 100.0 mg/kg/injection, schedule: Q04DX002 (ip), vehicle: saline with Tween-80) 99 % of control; (dose: 200.0 mg/kg/injection, schedule: Q04DX002 (ip), vehicle: saline with Tween-80) 99 % of control; (dose: 400.0 mg/kg/injection, schedule: Q04DX002 (ip), vehicle: saline with Tween-80) 99 % of control.

Take `CCN(CC)C(=S)Nc1ccc([N+](=O)[O-])cc1`: the T/C is, setting by setting: (dose: 100.0 mg/kg/injection, schedule: Q01DX009 (ip), vehicle: Klucel (hydroxypropylcellulose) (HPC)) 104 % of control; (dose: 200.0 mg/kg/injection, schedule: Q01DX009 (ip), vehicle: Klucel (hydroxypropylcellulose) (HPC)) 86 % of control; (dose: 400.0 mg/kg/injection, schedule: Q01DX009 (ip), vehicle: Klucel (hydroxypropylcellulose) (HPC)) 100 % of control.

`CCC[As](=O)(O)CC(C)C`: the T/C is, setting by setting: (dose: 6.25 mg/kg/injection, schedule: Q01DX001 (ip), vehicle: saline) 102 % of control; (dose: 6.25 mg/kg/injection, schedule: Q01DX009 (ip), vehicle: saline) 119 % of control; (dose: 12.5 mg/kg/injection, schedule: Q01DX001 (ip), vehicle: saline) 98 % of control; (dose: 12.5 mg/kg/injection, schedule: Q01DX009 (ip), vehicle: saline) 101 % of control and 108 % of control; (dose: 12.5 mg/kg/injection, schedule: Q04DX003 (ip), vehicle: saline) 94 % of control; (dose: 25.0 mg/kg/injection, schedule: Q01DX001 (ip), vehicle: saline) 101 % of control. In addition, the T/C is 162 % of control (dose: 25.0 mg/kg/injection, schedule: Q01DX009 (ip), vehicle: saline); 97 % of control under setting [1]; 113 % of control (dose: 25.0 mg/kg/injection, schedule: Q04DX003 (ip), vehicle: saline); 104 % of control (dose: 50.0 mg/kg/injection, schedule: Q01DX001 (ip), vehicle: saline); 103 % of control under setting [2]; 95 % of control (dose: 50.0 mg/kg/injection, schedule: Q04DX003 (ip), vehicle: saline).
